Data: EP0812190B1 (priority 1993, dated 1995)
Where two headings read alike, the source gives them in different places.

How the values were obtained:
[1] = tested on: MPTP-induced striatal dopamine depletions; experiment: Suppression of MPTP-induced dopaminergic toxicity (striatal DA and DOPAC); assay type: in vivo, mice; conditions: striatum
Protocol: Brains were removed and corpora striata dissected on an ice-cold glass plate and frozen on dry ice. Striatal tissues were homogenized in 0.1 M perchloric acid, and deproteinized aliquots containing dihydroxybenzylamine as an internal standard were assayed for dopamine and its major metabolite 3,4-dihydroxy-phenylacetic acid (DOPAC) using HPLC with electrochemical detection.

MAO-A [2] = molecular target: T1, MAO-A (Rattus norvegicus, UniProt P21396); experiment: Inhibition of MAO activity in vivo, acute treatment, MAO-A; parameters: MAO activity determined in brain and liver using the general technique described above; from tissue; host or cells: brain and liver of treated rats
T1 sequence (P21396 1-526): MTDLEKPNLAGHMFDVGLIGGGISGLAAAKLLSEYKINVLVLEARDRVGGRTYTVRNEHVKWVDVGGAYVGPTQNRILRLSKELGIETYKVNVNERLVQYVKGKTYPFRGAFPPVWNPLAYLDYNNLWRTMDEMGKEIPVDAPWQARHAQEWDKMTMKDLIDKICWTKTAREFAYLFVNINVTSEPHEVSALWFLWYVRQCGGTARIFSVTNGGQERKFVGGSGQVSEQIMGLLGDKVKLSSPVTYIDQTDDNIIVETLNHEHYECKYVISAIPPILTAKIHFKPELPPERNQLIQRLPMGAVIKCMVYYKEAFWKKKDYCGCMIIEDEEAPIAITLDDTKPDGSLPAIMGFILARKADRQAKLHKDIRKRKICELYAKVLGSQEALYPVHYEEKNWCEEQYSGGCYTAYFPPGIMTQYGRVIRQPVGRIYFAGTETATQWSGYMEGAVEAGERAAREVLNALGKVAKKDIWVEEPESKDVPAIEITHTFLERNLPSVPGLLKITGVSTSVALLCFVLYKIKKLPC
Protocol: Groups of three rats were used for each dose level of inhibitor, and MAO activity determined in brain and liver using the general technique described above. The amount of protein in each incubation was determined using the Folin-Lowry method, and enzyme activity calculated as nmol of substrate metabolized per hour of incubation for each mg of protein. Activity of MAO in tissues from animals treated with inhibitors was expressed as a percentage of the enzyme activity in a group of control animals administered vehicle (water for oral administration, 0.9% saline for ip injection) and killed as above.

MAO-B = molecular target: T2, MAO-B (Rattus norvegicus, UniProt P19643); experiment: in vivo; conditions: po, read-out: inhibition of brain MAO-B
T2 sequence (P19643 1-520): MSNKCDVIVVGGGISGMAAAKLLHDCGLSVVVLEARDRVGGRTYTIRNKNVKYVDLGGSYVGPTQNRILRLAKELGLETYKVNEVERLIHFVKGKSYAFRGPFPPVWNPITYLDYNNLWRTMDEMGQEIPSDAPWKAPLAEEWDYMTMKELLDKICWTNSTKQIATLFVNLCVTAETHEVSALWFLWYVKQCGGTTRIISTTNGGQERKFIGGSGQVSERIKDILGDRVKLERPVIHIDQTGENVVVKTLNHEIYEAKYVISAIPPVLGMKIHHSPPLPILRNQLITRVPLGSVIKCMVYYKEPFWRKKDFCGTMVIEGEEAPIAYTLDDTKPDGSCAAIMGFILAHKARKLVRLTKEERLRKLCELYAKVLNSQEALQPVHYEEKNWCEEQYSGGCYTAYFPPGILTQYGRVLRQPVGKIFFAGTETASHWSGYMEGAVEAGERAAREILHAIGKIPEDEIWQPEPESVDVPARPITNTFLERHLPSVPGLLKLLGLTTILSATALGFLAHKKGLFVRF
Protocol: (§1) (+)PAI or the racemic mixture at three dose levels (0.05, 0.1 and 0.5mg/kg) by oral administration, one dose daily for 21 days, and decapitated 2 hours after the last dose.

[3] = tested on: amphetamine-induced stereotype behavior; conditions: 0.5 mg/kg/day in drinking water, lateral head movements over 1 minute
Protocol: The extent of this behavior is rated in accordance with the number of lateral head movements over a period of 1 minute.
Following that, amphetamine was injected s.c. at a dose of 0.5 mg/kg. 45 minutes later, lateral head movements were counted.

guinea-pig ileum [4] = experiment: tissue or blood; conditions: Cavia porcellus, read-out: Percent relaxation
[5] = tested on: passive avoidance response
Protocol: [R] (+)PAI or [S] (-)PAI were administered according to one of the following protocols.
Protocol A - Nursing mothers were given a dose of either isomer of 1-1.5 mg/kg/day in drinking water until weaning at 21 days. Following that, the weaned offsprings were directly treated with the same dose for 20 days. Treatment was terminated at 40 days and the test was performed at 60 days, that is 20 days after the last dose of the drug.
Protocol B - The dose was reduced to 0.5 mg/kg/day administered to the nursing mother until weaning at 21 days, then directly to the young rats to 60 days at which time the test was performed. ,
Passive Avoidance Test - The apparatus consisted of a lit chamber adjoining a dark chamber and a sliding door separating the two. At training, a rat was placed in the lit chamber for 30 seconds, and then the door was opened. The rat moved to the dark chamber with a latency that was recorded. Upon entry of the rat into the dark compartment, the door was closed and a 0.3 mA foot-shock was delivered for 3 seconds.

guinea-pig ileum [6] = tested on: guinea-pig ileum
MAO-A [7] = molecular target: T1, MAO-A; conditions: 21 days
Protocol: as §1

[8] = dose producing 50% inhibition, rat, i.p., 1h
[9] = dose producing 50% inhibition, rat, p.o., 2h
[10] = Protocol A, Anoxia-lesioned rats
[11] = Protocol B, Anoxia-lesioned rats

C#CCN[C@@H]1CCc2ccccc21 [[R](+)PAI, R(+)-N-propargyl-1-aminoindan]
DOPAC ([1]; drug alone (PAI isomers […] i.p., deprenyl 5 mg/kg i.p.)): 3.3±0.3 ng/mg protein | DA ([1]; drug alone (PAI isomers […] i.p., deprenyl 5 mg/kg i.p.), Mean±S.E.M.): 185.0±6.9 ng/mg protein | DA ([1]; pretreatment one hour before MPTP-HCl 30 mg/kg s.c. (PAI isomers […] i.p., deprenyl 5 mg/kg i.p.), 5 days later): 177.8±14.4 ng/mg protein | DOPAC ([1]; pretreatment one hour before MPTP-HCl 30 mg/kg s.c., 5 days later): 6.0±0.3 ng/mg protein | inhibition of MAO-A activity (MAO-A [2]; brain, 0.5mg/kg i.p., single dose): 20% | inhibition of MAO-A (MAO-A [2]; brain, 0.5mg/kg oral, single dose): no detectable inhibition | IC-50 MAO-A I.P. BRAIN (MAO-A [2]; [8]): 1.2 mg/kg | IC-50 MAO-A I.P. LIVER (MAO-A [2]; [8]): 5 mg/kg | IC-50 MAO-A P.O. BRAIN (MAO-A [2]; [9]): >5 mg/kg | IC-50 MAO-A P.O. LIVER (MAO-A [2]; [9]): >5 mg/kg | inhibition at 0.1 mg/kg (MAO-B): > 80% | Stereotype Behavior Rating ([3]; control senescent rats, 45 min after amphetamine 0.5 mg/kg s.c.): 126±16 | Stereotype Behavior Rating ([3]; hypoxia lesioned senescent rats): 143±6 | inhibition at 60 µM (guinea-pig ileum [4]): 25 to 50% | latency After Electroshock [5, 10]: 239 ± 99 s | latency Before Electroshock [5, 10]: 49 ± 10 s | percent increase of latency After Electroshock ([5]; Protocol A, Anoxia-lesioned rats, versus corresponding anoxia group): 19% | latency After Electroshock ([5]; Protocol A, Control rats): 220 ± 100 s | percent increase of latency After Electroshock ([5]; Protocol A, Control rats, versus corresponding control group): +9% | latency Before Electroshock ([5]; Protocol B (0.5 mg/kg/day), Control rats): 48 ± 11 s | latency After Electroshock [5, 11]: 137 ± 126 s | latency Before Electroshock [5, 11]: 52 ± 12 s | percent increase of latency After Electroshock [5, 11]: +15% | latency After Electroshock ([5]; Protocol B, Control rats): 128 ± 119 s | percent increase of latency After Electroshock ([5]; Protocol B, Control rats): +23% | gram-tension (guinea-pig ileum [6]; bethanechol 0.8 µM, 400 µM PAI HCl enantiomer): 0.2 gram-tension | gram-tension (guinea-pig ileum [6]; bethanechol 2 µM, 400 µM enantiomer): 0.3 gram-tension | gram-tension (guinea-pig ileum [6]; bethanechol 4 µM, 400 µM enantiomer): 0.7 gram-tension | gram-tension (guinea-pig ileum [6]; bethanechol 8 µM, 400 µM enantiomer): 1.0 gram-tension | gram-tension (guinea-pig ileum [6]; bethanechol 20 µM, 400 µM enantiomer): 2.0 gram-tension | gram-tension (guinea-pig ileum [6]; bethanechol 40 µM, 400 µM enantiomer): 2.8 gram-tension | gram-tension (guinea-pig ileum [6]; bethanechol 80 µM, 400 µM enantiomer): 3.1 gram-tension | gram-tension (guinea-pig ileum [6]; bethanechol 200 µM, 400 µM enantiomer): 4.3 gram-tension | inhibition of brain MAO-A (MAO-A [7]; 0.1mg/kg daily oral): ≤ 20% | inhibition of MAO-A (MAO-A [7]; 0.5mg/kg daily oral): less than 50%
